According to patent US9079906B2, “Triazolopyridazines as PAR1 inhibitors, production thereof, and use as medicaments” (Sanofi, priority 2008, dated 2015):
Structures can show the parent of a compound that is named as a salt.

biological target: PAR1 (Homo sapiens (Human), UniProt P25116); assay: Inhibition of PAR1-mediated platelet aggregation induced by TRAP; assay type: cell-based; conditions: TRAP-induced aggregation of washed platelets from healthy volunteer donors, 96-well format
Procedure: PAR1 determination method: inhibition of PAR1-mediated platelet aggregation
The pharmacological testing of the substances took place in platelet aggregation induced by TRAP (thrombin receptor-activating peptide) in 96-well format. For this purpose, blood was taken from healthy volunteer donors in 20 ml syringes containing 2 ml of 3.13% sodium citrate solution. After centrifugation at 150×g for 20 minutes, the platelet-rich plasma (PRP) was separated off and mixed with 1 μl of PGE1 solution (500 μg/ml in ethanol)/ml of PRP. Incubation at RT for 5 minutes was followed by centrifugation at 120×g for 15 minutes to remove the leukocytes. The leukocyte-free PRP was transferred in 5 ml portions into 15 ml PP tubes and centrifuged at 360×g for 15 minutes in order to pellet the platelets. The plasma was then decanted off and the platelet sediment from 5 ml of PRP was resuspended in 1 ml of Tyrode's (120 mM NaCl, 2.6 mM KCl, 12 mM NaHCO3, 0.39 mM NaH2PO4×H2O, 10 mM HEPES, 0.35% BSA, 5.5 mM glucose, pH 7.4) and adjusted with Tyrode's to a platelet count of 3×10^5/microliter (μL). 13 ml of this cell suspension were then mixed with 866 μL of 10 mM CaCl2 solution, and 120 μL thereof were pipetted into each well of a 96-well plate containing 15 μL of the substance to be tested. After incubation at room temperature in the dark for 30 minutes, 15 μL of a TRAP solution (70-100 μM) were added as agonist, and kinetics were recorded at 650 nm in a SpectraMax 340 at 37° C. for 20 minutes while shaking. The areas under the curves of negative control (Tyrode's/DMSO) and positive control (15 μl of agonist/DMSO) were calculated and the difference was fixed as the 100% value. The substances to be tested were pipetted as serial dilutions in duplicate determination, the AUC was likewise determined for each substance concentration, and the % inhibition of the AUC compared with the control was calculated. On the basis of the % inhibition, the IC50 was calculated by nonlinear regression analysis according to the 4-parameter equation.

Sequence of PAR1 (P25116 22-425): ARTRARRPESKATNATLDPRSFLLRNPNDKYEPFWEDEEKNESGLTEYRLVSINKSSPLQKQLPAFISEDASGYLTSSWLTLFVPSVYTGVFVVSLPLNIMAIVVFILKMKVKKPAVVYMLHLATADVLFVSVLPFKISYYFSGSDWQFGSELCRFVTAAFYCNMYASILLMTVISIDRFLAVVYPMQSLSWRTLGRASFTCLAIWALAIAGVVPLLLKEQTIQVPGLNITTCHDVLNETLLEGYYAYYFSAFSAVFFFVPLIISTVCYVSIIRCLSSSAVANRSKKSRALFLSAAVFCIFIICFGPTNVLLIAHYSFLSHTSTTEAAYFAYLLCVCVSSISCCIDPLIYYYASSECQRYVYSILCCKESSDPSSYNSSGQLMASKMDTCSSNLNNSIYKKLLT

Row | IC50 [µM] | Structure (SMILES)
1 | 0.127 | CCC(CC)Oc1ccc2nn(CC(=O)c3cc(NC)cc(S(F)(F)(F)(F)F)c3)c(=N)n2n1 [Example 16, 2-[6-(1-ethylpropoxy)-3-imino-[1,2,4]triazolo[4,3-b]pyridazin-2-yl]-1-[3-methylamino-5-(pentafluorosulfanyl)phenyl]ethanone trifluoroacetic acid salt]
2 | 0.059 | CCC(CC)Oc1nn2c(=N)n(CC(=O)c3cc(OC)cc(S(F)(F)(F)(F)F)c3)nc2c(C)c1C [Example 85, 2-[6-(1-ethylpropoxy)-3-imino-7,8-dimethyl-[1,2,4]triazolo[4,3-b]pyridazin-2-yl]-1-[3-methoxy-5-(pentafluorosulfanyl)-phenyl]ethanone trifluoroacetic acid salt]

The next lines start with the molecule.

Row | Structure (SMILES) | IC50 [µM]
3 | COCC(COC)Oc1cc(C)c2nn(CC(=O)c3cc(OCCO)cc(C(C)(C)C)c3)c(=N)n2n1 [Example 98, 1-[3-tert-butyl-5-(2-hydroxy-ethoxy)phenyl]-2-[3-imino-6-(2-methoxy-1-methoxymethyl-ethoxy)-8-methyl-[1,2,4]triazolo[4,3-b]pyridazin-2-yl]ethanone hydrochloride] | 0.334
4 | CCC(CC)Oc1cc(C)c2nn(CC(=O)c3cc(OCCOC)cc(C(C)(C)C)c3)c(=N)n2n1 [Example 66, 1-[3-tert-butyl-5-(2-methoxy-ethoxy)phenyl]-2-[6-(1-ethylpropoxy)-3-imino-8-methyl-[1,2,4]triazolo[4,3-b]pyridazin-2-yl]ethanone hydrochloride] | 0.025
5 | CCN(CC)c1cc(C)c2nn(CC(=O)c3cc(OC)cc(S(F)(F)(F)(F)F)c3)c(=N)n2n1 [Example 108, 2-(6-diethylamino-3-imino-8-methyl-[1,2,4]triazolo[4,3-b]pyridazin-2-yl)-1-[3-methoxy-5-(pentafluorosulfanyl)phenyl]-ethanone trifluoroacetic acid salt] | 0.016
6 | CCOc1ccc2nn(CC(=O)c3cc(N4CCOCC4)c(OC)c(C(C)(C)C)c3)c(=N)n2n1 [Example 7, 1-(3-tert-butyl-4-methoxy-5-morpholin-4-ylphenyl)-2-(6-ethoxy-3-imino-[1,2,4]triazolo[4,3-b]pyridazin-2-yl)ethanone trifluoroacetic acid salt] | 0.158
